Assay results published in patent US20210353624A1, “METHOD OF TREATING CANCER WITH TELOTRISAT OR A PRODRUG THEREOF” (TerSera Therapeutics LLC, priority 2020, published 2021).

Tests used:
[1] = Changes in carcinoid syndrome symptoms, body weight and ECOG Performance Status after TE initiation (TELEACE); assay type: in vivo, human
Text: Time to tumor progression was defined as the time from telotristat ethyl initiation to the first documented tumor progression in the medical chart. […] Progression-free survival (PFS) was defined as the time from telotristat ethyl initiation to tumor progression or death. […] Physician-assessed changes in body weight, Eastern Cooperative Oncology Group (ECOG) Performance Status, and CS symptoms including diarrhea, flushing, abdominal pain, nausea and ascites were abstracted from medical charts before and after telotristat ethyl initiation. In order to evaluate the effect of telotristat ethyl treatment on secondary clinical outcomes, analyses were conducted in the overall population and in a subgroup of patients who had the same documented non-telotristat ethyl neuroendocrine tumor treatment before and after telotristat ethyl initiation. Descriptive statistics summarized patient demographic and clinical characteristics, and changes in body weight and ECOG Performance Status after telotristat ethyl treatment initiation. Kaplan-Meier analyses estimated median time to tumor progression and median PFS. Chi-square test evaluated changes in documented CS symptoms (improved vs same/worsened) before and after telotristat ethyl initiation. All analyses were performed using SAS version 9.4 (SAS Institute, Cary, N.C., USA). To evaluate the change in CS symptoms, weight, and ECOG performance status between the pre- and post-TE periods, patients with documented CS symptoms (i.e., abdominal pain, ascites, diarrhea, flushing, nausea) pre-TE initiation were described using proportions and frequencies. The change in documented CS symptoms, weight, and ECOG performance status after TE Initiation (i.e., improved/increased, stayed the same/remained unchanged, worsened/decreased) were also described using proportions and frequencies. P-values were calculated using Chi-square test for equal proportions for change in CS symptoms (i.e., proportion of patients with improved vs. stayed the same/worsened CS symptoms).

[2] = system: normal cell lines: fallopian tube epithelium (FT240), ovarian surface epithelium (OSE22), first trimester placental fibroblasts (FTP); assay: Cell confluence of normal cell lines grown with telotristat ethyl; assay type: cell-based; conditions: 0, 5, 15 and 30 μM telotristat ethyl, 24 to 96 hours
Description: This example provides experiments assessing the effects of telotristat ethyl on three aggressive cancer cell lines—liposarcoma (94T778), colon cancer (HT-29), and cholangiocarcinoma (TFK-1)—and three “normal” cell lines—fallopian tube epithelium (FT240), ovarian surface epithelium (OSE22), and first trimester placental fibroblasts (FTP).
The cells were grown with 0, 5, 15 and 30 μM telotristat ethyl, plated into four-chambered slides with an initial confluence of at least 30%, and cultured for 24 to 96 hours. At the end of each 24-hour period, cell density was measured with hematoxylin, and the presence of 5-HT was assessed by immunohistochemistry. Experiments were performed in triplicate. Cell confluence was determined, and the 5-HT expression was recorded as an H-score.

u5-HIAA = assay: Biomarker changes after TE initiation (TELEACE): u5-HIAA; assay type: in vivo, human; conditions: n=22
Description: This example provides the effects of telotristat ethyl treatment on selected patient biomarkers (i.e., u5-HIAA; CgA; 5-HT; and NT-proBNP) in the retrospective, single arm study of Example 4.
The average (SD) duration of documented TE treatment was 12.0 (7.3) months with a median (IQR) of 9.0 (6.8, 15.2) months. In many cases, a patient received a TE dosage of 250 mg three times per day.
The continuous measures of biomarker values pre- and post-TE initiation were described using mean, SD, median, and IQR. The biomarkers were assessed only among patients with complete biomarker assessment results in both pre-TE and post-TE initiation periods. A Wilcoxon signed rank test was used to calculate P-values for the mean change in biomarker value.
Patients with reported biomarker values below, at, or above normal range in pre-TE and post-TE initiation periods were described using proportions and frequencies. The biomarkers were assessed only among patients with complete biomarker assessment results in both pre-TE and post-TE initiation periods. McNemar's test was used to calculate P-values for the differences in paired proportions of patients with values above the upper limit of normal.
To evaluate the relationship between the change in biomarker values (i.e., u5-HIAA; CgA; 5-HT) and the change in tumor progression between the pre- and post-TE periods, Pearson's correlation coefficient was used to assess the correlation between biomarker assessments and tumor sizes and to derive the associated P-values. The correlations were assessed only among patients with complete biomarker assessment results in both pre-TE and post-TE initiation periods. The relationship between biomarker values and tumor sizes during pre-TE and post-TE initiation period was presented using scatterplots.
For the biomarker results below, the pre-TE initiation period is defined as 12 months before the index date (initiation of TE). The assessment closest to the index date during the pre-TE period was reported for each biomarker.
The post-TE initiation period is defined as a period from index date to the earlier of end of treatment with TE or date of chart abstraction. The assessment closest to the date of chart abstraction during the post-TE period was reported for each biomarker.
The data includes patients with reported biomarker values, units, and laboratory ranges during pre- and post-TE initiation periods. It excludes patients who had different biomarker units or laboratory ranges reported pre- and post-TE initiation.
The normal range was defined by reported laboratory lower limit of normal and upper limit of normal.
The values in Table 5-1 have been converted to mg/24 hours based on the following conversion rate: […]. The Wilcoxon signed rank test was used to calculate P-values for the mean change in biomarker values pre- and post-TE initiation.
Table 5-4 is based on patients who had complete biomarker assessment results (u5-HIAA: N=22; 5-HT: N=22) in both pre-TE and post-TE initiation periods. Correlation analysis was not conducted for CgA and NT-proBNP due to small sample sizes for CgA (n=15) and NT-proBNP (n=2). Pearson's correlation coefficient was used to assess the correlation between biomarker assessments and tumor sizes and to derive the associated P-values. Values have been converted to mg/24 hours based on the following conversion rate: […].

SMILES: CCOC(=O)[C@@H](N)Cc1ccc(-c2cc(O[C@H](c3ccc(Cl)cc3-n3ccc(C)n3)C(F)(F)F)nc(N)n2)cc1 [telotristat ethyl, (S)-ethyl 2-amino-3-(4-(2-amino-6-((R)-1-(4-chloro-2-(3-methyl-1H-pyrazol-1-yl)phenyl)-2,2,2-trifluoroethoxy)pyrimidin-4-yl)phenyl)propanoate]
- Body weight and ECOG Performance Status after telotristat ethyl ([1]; overall population and same NET treatment subgroup): improved or unchanged for most patients
- patients with improvement in nausea after TE initiation ([1]; overall population, n=41): 78%
- patients with improvement in abdominal pain after TE initiation ([1]; overall population, n=69): 81%
- patients with improvement in flushing after TE initiation ([1]; overall population, n=88): 81%
- patients with improvement in diarrhea after TE initiation ([1]; overall population, n=133): 85%
- cell confluence [2]: minimally impacted
- u5-HIAA Below normal range Post-TE, n (%) (u5-HIAA; pre-TE 0 (0)): 0 (0) n (%)
- u5-HIAA At normal range Post-TE, n (%) (u5-HIAA; pre-TE 1 (4.5)): 2 (9.1) n (%)
- u5-HIAA Above normal range Post-TE, n (%) (u5-HIAA; pre-TE 21 (95.5), P=0.317): 20 (90.9) n (%)
- u5-HIAA Measurement (mg/24 hours) Post-TE Initiation, Median (IQR) (u5-HIAA; pre-TE 42.0 (25.0, 65.0)): 25.0 (16.0, 44.0) mg/24 hours
- u5-HIAA Measurement (mg/24 hours) Post-TE Initiation, Mean ± SD (u5-HIAA; pre-TE 72.5 ± 98.0, P<0.001): 43.6 ± 54.7 mg/24 hours
